Laboratory results from patent US7537775B2, “Low pH skin care compositions containing dehydroacetic acid” (The Procter & Gamble Company, priority 2005, dated 2009).

Experiment: Stability of dehydroacetic acid in aqueous low-pH skin care compositions
Type: physicochemical
Conditions: observation from formulation attempts
Text: Dehydroacetic acid also has proven effective in improving skin texture and appearance, and has the additional benefit of reducing oily skin. See, for example, Biederman et al., U.S. Pat. No. 6,150,403. […] Therefore, a need remains for stable, low-pH skin care compositions to effect delivery of dehydroacetic acid, either alone or in combination with other low-pH skin care actives.
The present invention describes skin care compositions in which dehydroacetic acid is stabilized at a pH of about 4.5 and below. […] To effect stabilization of dehydroacetic acid, the compositions of the present invention include oils that have both an optimal solubility parameter and limited solubility in water. The present invention describes stable skin care compositions made by a procedure that utilizes this combination of properties to stabilize dehydroacetic acid in its active form at a low-pH.
Herein, “stable” and “stability” mean compositions which are substantially unaltered in chemical or physical state. […] Transport and storage conditions may include prolonged exposure to temperatures of from about −50° F. to about 150° F. Stability may be determined either by empirical observation or by appropriate methods of chemical analysis that would be known to one of skill in the art.

CC(=O)C1C(=O)C=C(C)OC1=O (stereo not shown) [dehydroacetic acid, 3-acetyl-6-methyl-2H-pyran-2,4,(3H)-dione]
pH below which dehydroacetic acid begins to exhibit instability: below 7.0
